The target of the test is PIM1 (Homo sapiens, UniProt P11309). Briefly: ADP-Glo in vitro kinase assay; supported by CETSA western blot in MDA-MB-231 (about […] °C stabilization). The format is biochemical. (ADP-Glo turns the ADP formed in a reaction into a luminescent signal.)

The values that follow come from publication PMC10051292, “Neoprzewaquinone A Inhibits Breast Cancer Cell Migration and Promotes Smooth Muscle Relaxation by Targeting PIM1 to Block ROCK2/STAT3 Pathway” (International Journal of Molecular Sciences, 2023).

PIM1, sequence (P11309 whole entry): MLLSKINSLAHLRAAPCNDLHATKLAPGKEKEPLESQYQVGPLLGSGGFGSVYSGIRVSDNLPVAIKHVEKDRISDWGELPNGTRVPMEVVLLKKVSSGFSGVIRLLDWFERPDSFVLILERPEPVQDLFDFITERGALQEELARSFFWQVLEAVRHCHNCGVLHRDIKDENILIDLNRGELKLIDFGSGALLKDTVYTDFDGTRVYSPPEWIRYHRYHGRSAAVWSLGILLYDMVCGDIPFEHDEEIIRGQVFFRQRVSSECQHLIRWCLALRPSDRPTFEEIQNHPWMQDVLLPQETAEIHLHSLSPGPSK

As a reminder, the IC50 is the concentration that gives 50% inhibition. High values mean weaker potency in that assay, low ones greater potency in that assay. Regarding `C=C1CCCc2c(ccc3c2C(=O)C(=O)c2c(C)coc2-3)/C(C)=C/CCc2c1ccc1c2C(=O)C(=O)c2c(C)coc2-1` [NEO, Neoprzewaquinone A], half-maximal inhibition (IC50) required 0.56 µM.
